Experimental data reported in patent US6649656B1, “Anthranilic acid derivatives” (Teijin Limited, priority 1998, dated 2003).
Where two headings read alike, the source gives them in different places.

What was measured:
Assay type in all cases: cell-based
[1] = test system: IgE antibody production from human lymphocyte; assay: Human in vitro IgE antibody production suppressing activity (lymphocyte culture with IL-4 + IL-10 + anti-CD40 antibody, sandwich ELISA); settings: for IC50: IgE antibody production; for inhibition at 1 µM: test drug concentration 1 μM, IL-4 + IL-10 + anti-CD40 antibody, read-out: IgE production suppressing ratio (%)
Method: (§1) The concentrations of IgE and IgG antibodies were measured by the following method according to the method described in the Journal of Immunology vol.146, pp.1836-1842, 1991 and the Journal of Immunology vol. 147, pp.8-13, 1991.
(§2) Concretely, lymphocyte was separated from the peripheral venous blood of healthy person by density gradient centrifugation. The obtained lymphocyte was washed, suspended in a culture liquid (RPMI-1640 (product of Gibco Co.)+10% heat-inactivated FCS (product of Whittaker Co.)+100 μg/ml streptomycin+100 U/ml penicillin G+2 mM L-glutamine) and cultured for a week in the presence of interleukin 4 (IL-4, product of GENZYME Co.) (0.1 μg/ml), anti-CD40 antibody (antiCD40Aab, product of BIOSOURCE Co.), clone B-B20) (2 μg/ml) and interleukin 10 (IL-10, product of GENZYME Co.) (0.2 μg/ml) in the presence or absence of the compounds of the present invention described in the Tables 10 to 15 at various concentrations as test drugs.
(§3) The culture liquid was added to the culture system, the culture was continued for additional one week, and the concentrations of IgE and IgG antibodies in the supernatant were measured by sandwich ELISA method.
(§4) The measurement by ELISA method was carried out according to the known ELISA method by using rabbit anti-human IgE(ε) antibody (product of ICN Co.) as the primary antibody and biotin.anti-human IgE monoclonal antibody (G7-26, product of PharMingen Co.) as the secondary antibody for the measurement of IgE antibody concentration and anti-human IgG monoclonal antibody (G18-145, product of PharMingen Co.) as the primary antibody and biotin-donkey anti-human IgG antibody (H+L) (product of Jackson Co.) as the secondary antibody for the measurement of IgG antibody concentration, and using avidin-biotin-hourse radish peroxidase (ABC kit, product of Vector Lab.) as the enzyme and TMB (3,3′,5,5′-tetramethylbenzidine) microwell peroxidase substrate system (product of Kirkegaard & Perry Laboratories Inc.) as the substrate.
(§5) The value of IC50 and the suppressing ratio (%) at the test drug concentration of 1 μM were calculated based on the concentration attained in the absence of the compound of the present invention (reference: Ueshimna, et al. American Academy of Allergy & Immunology, 1995 Annual Meeting, Program No.818).

[2] = test system: IgG antibody production from human lymphocyte; assay: Human in vitro IgG antibody production (same lymphocyte culture, sandwich ELISA); settings: for inhibition at 1 µM: Homo sapiens, Lymphocyte, test drug concentration 1 μM, IL-4 + IL-10 + anti-CD40 antibody, read-out: IgG production suppressing ratio (%); for IC50: IgG antibody production
Method: as §1, §2, §3, §4, §5

L929 cells = assay: Measurement of cytotoxicity using mouse tumor cell L929 (neutral red assay)
Method: [Procedure] The cytotoxicity action on tumor cell was measured by neutral red assay (the method described in the Journal of Tissue Culture Methodology vol.9, p.7 (1984) and Toxicology Letters, vol.24, p.119 (1985)). Concretely, L929 cells (5×10^4 cells/ml, 10% FCS/RPMI) were added to the wells of a 96 well ELISA plate at a rate of 100 μL each and cultured for a night, and the testing compounds of respective measurement concentrations were dissolved in DMSO solution and added to the above cells. The culture was continued for 3 days, and 2.0 μL of Neutral Red was added to attain the final concentration of 0.01%. The mixture was incubated for 1 hour at 37° C., the supernatant of the cell culture product was removed and the residue was washed twice with 200 μL of PBS to remove excess Neutral Red. Thereafter, the dye taken into the cell was extracted by adding 100 μL of 50% ethanol-1% acetic acid aqueous solution and the amount of the dye was determined by measuring the absorbance at 490 nm. The cytotoxicity was determined at each concentration of the test compound taking the cytotoxicity free from the drug as 100%. […] Two sets of measurement were performed for each test under the same condition and the average value was used as the test result.

[3] = 72 h, cytotoxic activity against L929, neutral red assay, 3 days culture, read-out: LD50 (the source's name)

SMILES | IC50 [1] | inhibition at 1 µM [1] | inhibition at 1 µM [2] | IC50 [2] | CC50 (L929 cells; [3]) | CC50 (L929 cells; L929, 72 h, read-out: LD50 (μM))
O=C(Cc1ccc(Oc2ccc(OC3CCC(NC(=O)Nc4ccc(Cl)c(Cl)c4)CC3)cc2)cc1)Nc1ccccc1C(=O)O (centres unmarked) [compound 142] | 0.034 µM | 100% | 93.7% | 0.141 µM | 0.54 µM | –
O=C(Cc1ccc(Oc2ccc(OC3CCOCC3)cc2)cc1)Nc1ccccc1C(=O)O [compound 44] | 0.221 µM | 100% | 88.5% | 0.404 µM | – | 1.16 µM
CC(=O)Nc1ccc(CCOc2ccc(Oc3ccc(CC(=O)Nc4ccccc4C(=O)O)cc3)cc2)cc1 [compound 45] | 0.305 µM | 99.4% | -179% | 0.631 µM | 0.22 µM | –
O=C(Cc1ccc(Oc2ccc(OC3CCC(NC(=O)c4ccc(Cl)c(Cl)c4)CC3)cc2)cc1)Nc1ccccc1C(=O)O (centres unmarked) [compound 100] | 0.028 µM | 100% | 100% | 0.244 µM | 0.95 µM | –
